Experimental data from patent publication US20240391862A1, “(1,4,5-TRISUBSTITUTED-1H-PYRAZOL-3-YL)OXY-2-ALKOXY ALKYL ACIDS AND THEIR DERIVATIVES, THEIR SALTS AND THEIR USE AS HERBICIDAL AGENTS” (Bayer AKtiengesellschaft, priority 2021, published 2024).

Legend:
VERPE = assay: Post-emergence herbicidal effect, greenhouse pot test; format: in vivo, Veronica persica; conditions: Veronica persica, 504 h, 320 g/ha, read-out: Post-emergence effect against VERPE in %
Summary of the method: (§1)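 Sandy loam pots, greenhouse. One-leaf stage (2–3 wk after sowing) foliar spray; WP/EC in water + 0.5% additive, 600 l/ha; 20–320 g/ha. Visual score ~3 wk, 0–100% vs untreated.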

ECHCG = assay: as above; format: in vivo, Echinochloa crus-galli; conditions: Echinochloa crus-galli, 504 h, read-out: Post-emergence effect against ECHCG in %
Summary of the method: as §1

MATIN = assay: as above; format: in vivo, Tripleurospermum inodorum; conditions: Tripleurospermum inodorum, 504 h, 320 g/ha, read-out: Post-emergence effect against MATIN in %
Summary of the method: as §1

POLCO = assay: as above; format: in vivo, Fallopia convolvulus; conditions: Fallopia convolvulus, 504 h, read-out: Post-emergence effect against POLCO in %
Summary of the method: as §1

PHBPU = assay: as above; format: in vivo, Ipomoea purpurea; conditions: Ipomoea purpurea, 504 h, read-out: Post-emergence effect against PHBPU in %
Summary of the method: as §1

AVEFA = assay: as above; format: in vivo, Avena fatua; conditions: Avena fatua, 504 h, visual rating about 3 weeks after treatment, read-out: Post-emergence effect against AVEFA
Summary of the method: as §1

SETVI = assay: as above; format: in vivo, Setaria viridis; conditions: Setaria viridis, 504 h, 320 g/ha, read-out: Post-emergence effect against SETVI in %
Summary of the method: as §1

LOLRI = assay: as above; format: in vivo, Lolium rigidum; conditions: Lolium rigidum, 504 h, read-out: Post-emergence effect against LOLRI in %
Summary of the method: as §1

VIOTR = assay: as above; format: in vivo, Viola tricolor; conditions: Viola tricolor, 504 h, read-out: Post-emergence effect against VIOTR in %
Summary of the method: as §1

ALOMY = assay: as above; format: in vivo, Alopecurus myosuroides; conditions: Alopecurus myosuroides, 504 h, 320 g/ha, visual rating about 3 weeks after treatment, read-out: Post-emergence effect against ALOMY
Summary of the method: as §1

DIGSA = assay: as above; format: in vivo, Digitaria sanguinalis; conditions: Digitaria sanguinalis, 504 h, visual rating about 3 weeks after treatment, read-out: Post-emergence effect against DIGSA
Summary of the method: as §1

AMARE = assay: as above; format: in vivo, Amaranthus retroflexus; conditions: Amaranthus retroflexus, 504 h, 320 g/ha, visual rating about 3 weeks after treatment, read-out: Post-emergence effect against AMARE
Summary of the method: as §1

KCHSC = assay: as above; format: in vivo; conditions: for pest or weed control at 80 g/ha / pest or weed control at 320 g/ha: 504 h, read-out: Post-emergence effect against KCHSC in %
Summary of the method: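 Visual rating of activity against untreated plants (100% = plants died, 0% = no effect), done about 3 weeks after treatment. Compounds applied at 20–320 g/ha as aqueous spray (600 l/ha, 0.5% additive) from WP or EC formulations onto one-leaf-stage plants grown in sandy loam under greenhouse conditions.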

ABUTH = assay: as above; format: in vivo, Abutilon theophrasti; conditions: Abutilon theophrasti, 504 h, visual rating about 3 weeks after treatment, read-out: Post-emergence effect against ABUTH
Summary of the method: as §1

ZEAMX = assay: Post-emergence herbicidal effect and crop plant compatibility, greenhouse pot test; format: in vivo, Zea mays; conditions: one-leaf stage, rated visually after about 3 weeks vs untreated controls; for plant injury at 20 g/ha / plant injury at 80 g/ha: Zea mays, 504 h; for plant injury at 20 g/ha: read-out: Post-emergence effect at 20 g/ha against ZEAMX in %; for plant injury at 80 g/ha: read-out: Post-emergence effect at 80 g/ha against ZEAMX in %
Summary of the method: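 Visual % activity scored roughly 3 weeks post-spray against untreated plants, where 100% means death and 0% equals control. Plants were treated at the one-leaf stage, 2 to 3 weeks after sowing in sandy loam, at 20 to 320 g/ha.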

CCOC(=O)C(OC)Oc1nn(-c2ncccc2F)c(-c2ccc(F)nc2)c1Br (stereo not drawn) [Example I-14]
pest or weed control at 320 g/ha (VERPE): 90% | pest or weed control at 80 g/ha (ECHCG): 90% | pest or weed control at 320 g/ha (ECHCG): 90% | pest or weed control at 320 g/ha (MATIN): 90% | pest or weed control at 80 g/ha (POLCO): 80% | pest or weed control at 320 g/ha (POLCO): 80% | pest or weed control at 80 g/ha (PHBPU): 80% | pest or weed control at 320 g/ha (PHBPU): 90% | pest or weed control at 80 g/ha (AVEFA): 90% | pest or weed control at 320 g/ha (AVEFA): 90% | pest or weed control at 320 g/ha (SETVI): 90% | pest or weed control at 80 g/ha (LOLRI): 90% | pest or weed control at 320 g/ha (LOLRI): 90% | pest or weed control at 80 g/ha (VIOTR): 90% | pest or weed control at 320 g/ha (VIOTR): 90% | pest or weed control at 320 g/ha (ALOMY): 90% | pest or weed control at 80 g/ha (DIGSA): 80% | pest or weed control at 320 g/ha (DIGSA): 90% | pest or weed control at 320 g/ha (AMARE): 80% | pest or weed control at 80 g/ha (KCHSC; 80 g/ha): 90% | pest or weed control at 320 g/ha (KCHSC; 320 g/ha): 90% | pest or weed control at 80 g/ha (ABUTH): 90% | pest or weed control at 320 g/ha (ABUTH): 90% | plant injury at 20 g/ha (ZEAMX): 0%

COC(=O)C(OC)Oc1nn(-c2ncccc2F)c(-c2ccc(F)nc2)c1C1CC1 (stereo not drawn) [Example I-40]
pest or weed control at 320 g/ha (VERPE): 90% | pest or weed control at 80 g/ha (ECHCG): 90% | pest or weed control at 320 g/ha (ECHCG): 90% | pest or weed control at 320 g/ha (MATIN): 80% | pest or weed control at 80 g/ha (POLCO): 90% | pest or weed control at 320 g/ha (POLCO): 90% | pest or weed control at 80 g/ha (PHBPU): 90% | pest or weed control at 320 g/ha (PHBPU): 90% | pest or weed control at 80 g/ha (AVEFA): 80% | pest or weed control at 320 g/ha (AVEFA): 90% | pest or weed control at 320 g/ha (SETVI): 90% | pest or weed control at 80 g/ha (LOLRI): 90% | pest or weed control at 320 g/ha (LOLRI): 90% | pest or weed control at 80 g/ha (VIOTR): 90% | pest or weed control at 320 g/ha (VIOTR): 90% | pest or weed control at 320 g/ha (ALOMY): 90% | pest or weed control at 320 g/ha (DIGSA): 90% | pest or weed control at 320 g/ha (AMARE): 80% | Post-emergence effect against KCHSC in % (KCHSC; 80 g/ha): 90% | Post-emergence effect against KCHSC in % (KCHSC; 320 g/ha): 90% | pest or weed control at 80 g/ha (ABUTH): 90% | pest or weed control at 320 g/ha (ABUTH): 90% | Post-emergence effect at 320 g/ha against ZEAMX in % (ZEAMX; 320 g/ha): 0% | plant injury at 20 g/ha (ZEAMX): 0% | plant injury at 80 g/ha (ZEAMX): 0%

COC(=O)C(OC)Oc1nn(-c2ncccc2F)c(-c2ccc(F)nc2)c1C(F)(F)F (stereo not drawn) [Example I-41, Methyl {[1-(3-fluoropyridin-2-yl)-5-(6-fluoropyridin-3-yl)-4-(trifluoromethyl)-1H-pyrazol-3-yl]oxy}(methoxy)acetate]
pest or weed control at 320 g/ha (VERPE): 90% | pest or weed control at 320 g/ha (ECHCG): 90% | pest or weed control at 320 g/ha (MATIN): 80% | pest or weed control at 80 g/ha (POLCO): 90% | pest or weed control at 320 g/ha (POLCO): 90% | pest or weed control at 80 g/ha (PHBPU): 90% | pest or weed control at 320 g/ha (PHBPU): 90% | pest or weed control at 80 g/ha (AVEFA): 80% | pest or weed control at 320 g/ha (AVEFA): 90% | pest or weed control at 320 g/ha (SETVI): 90% | pest or weed control at 320 g/ha (LOLRI): 90% | pest or weed control at 80 g/ha (VIOTR): 80% | pest or weed control at 320 g/ha (VIOTR): 90% | pest or weed control at 320 g/ha (ALOMY): 90% | pest or weed control at 80 g/ha (DIGSA): 80% | pest or weed control at 320 g/ha (DIGSA): 90% | pest or weed control at 320 g/ha (AMARE): 90% | pest or weed control at 80 g/ha (KCHSC; 80 g/ha): 80% | pest or weed control at 320 g/ha (KCHSC; 320 g/ha): 90% | pest or weed control at 80 g/ha (ABUTH): 90% | pest or weed control at 320 g/ha (ABUTH): 90% | plant injury at 20 g/ha (ZEAMX): 0% | plant injury at 80 g/ha (ZEAMX): 0%
